Target: c-fms (Homo sapiens, UniProt P07333)
Experiment: autophosphorylation, fluorescence polarization competition immunoassay for c-fms inhibition
Format: biochemical
Settings: 10 nM c-fms, 1 mM ATP; for IC50: averages of three independent measurements; for inhibition at 2 µM: at 2 μM compound
Procedure: The assay buffer used was 100 mM 4-(2-hydroxyethyl)piperazine 1-ethanesulfonic acid (HEPES), pH 7.5, 1 mM 1,4-dithio-DL-threitol (DTT), 0.01% (v/v) Tween-20. Compounds were diluted in assay buffer containing 4% dimethylsulfoxide (DMSO) just prior to the assay. To each well, 5 μL of compound were added followed by the addition of 3 μL of a mix containing 33 nM c-fms (Johnson & Johnson PRD) and 16.7 mM MgCl2 (Sigma) in assay buffer. The kinase reaction was initiated by adding 2 μL of 5 mM ATP (Sigma) in assay buffer. The final concentrations in the assay were 10 nM c-fms, 1 mM ATP, 5 mM MgCl2, 2% DMSO. Control reactions were ran in each plate: in positive and negative control wells, assay buffer (made 4% in DMSO) was substituted for the compound; in addition, positive control wells received 1.2 μL of 50 mM ethylenediaminetetraaceticacid (EDTA).
The plates were incubated at room temperature for 45 min. At the end of the incubation, the reaction was quenched with 1.2 μL of 50 mM EDTA (EDTA was not added to the positive control wells at this point; see above). Following a 5-min incubation, each well received 10 μL of a 1:1:3 mixture of anti-phosphotyrosine antibody, 10×, PTK green tracer, 10× (vortexed), FP dilution buffer, respectively (all from PanVera, cat. # P2837). The plate was covered, incubated for 30 min at room temperature and the fluorescence polarization was read on the Analyst. The instrument settings were: 485 nm excitation filter; 530 nm emission filter; Z height: middle of well; G factor: 0.93. […] The reported IC50 values are averages of three independent measurements.

Sequence of c-fms (P07333 20-972): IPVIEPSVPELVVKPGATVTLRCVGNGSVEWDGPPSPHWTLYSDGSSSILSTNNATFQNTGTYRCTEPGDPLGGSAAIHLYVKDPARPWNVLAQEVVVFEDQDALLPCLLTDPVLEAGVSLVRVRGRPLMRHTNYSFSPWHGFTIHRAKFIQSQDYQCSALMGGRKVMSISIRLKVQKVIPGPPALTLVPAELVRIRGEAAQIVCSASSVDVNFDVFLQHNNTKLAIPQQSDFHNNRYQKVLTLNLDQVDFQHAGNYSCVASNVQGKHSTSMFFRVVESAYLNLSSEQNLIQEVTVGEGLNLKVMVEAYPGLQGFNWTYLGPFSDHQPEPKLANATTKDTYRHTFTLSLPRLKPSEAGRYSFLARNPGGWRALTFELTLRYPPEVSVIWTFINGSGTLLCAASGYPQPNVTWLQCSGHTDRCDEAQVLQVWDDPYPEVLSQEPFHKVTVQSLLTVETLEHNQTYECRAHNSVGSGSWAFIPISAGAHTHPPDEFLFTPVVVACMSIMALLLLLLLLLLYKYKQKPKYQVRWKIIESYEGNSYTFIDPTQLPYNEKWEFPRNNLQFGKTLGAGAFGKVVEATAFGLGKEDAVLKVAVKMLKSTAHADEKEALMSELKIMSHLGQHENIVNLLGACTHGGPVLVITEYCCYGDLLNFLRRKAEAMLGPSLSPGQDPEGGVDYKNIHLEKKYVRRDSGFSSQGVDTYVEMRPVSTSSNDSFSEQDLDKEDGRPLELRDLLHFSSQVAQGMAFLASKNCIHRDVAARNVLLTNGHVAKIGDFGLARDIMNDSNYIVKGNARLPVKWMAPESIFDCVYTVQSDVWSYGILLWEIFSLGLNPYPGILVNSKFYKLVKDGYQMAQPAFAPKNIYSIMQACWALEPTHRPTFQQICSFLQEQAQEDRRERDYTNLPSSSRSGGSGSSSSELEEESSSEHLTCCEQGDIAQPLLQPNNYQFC

Compound	IC50 [nM]	inhibition at 2 µM [%]
N#Cc1ccc(C(=O)Nc2ccccc2-c2ccco2)o1		13
N#Cc1ccc(C(=O)Nc2ccccc2-c2cccs2)o1		25
N#Cc1ccc(C(=O)Nc2ccccc2C2CCCCC2)o1		29

The next lines start with the values.

IC50 [nM]	inhibition at 2 µM [%]	Compound
< 5000	54	N#Cc1ccc(C(=O)Nc2ccccc2-c2ccccc2)o1
< 1000	85	N#Cc1ccc(C(=O)Nc2ccccc2C2=CCCCC2)o1

From patent US20050113566A1, “Inhibitors of C-FMS kinase” (priority 2003, published 2005)
